According to patent US20240360178A1, “MACROCYCLIC IMMUNOMODULATORS” (Bristol-Myers Squibb Company, priority 2021, published 2024):
Positions of bridges follow the written chain, without caps; N, C: chain ends. Non-standard residues stand in square brackets, D forms with d. Residues, ends and D or L forms follow the SMILES beside them. Phe(4-COOH) = N[C@@H](Cc1ccc(C(=O)O)cc1)C(=O)O; Bip = N[C@@H](Cc1ccc(-c2ccccc2)cc1)C(=O)O; NMeF = CN[C@@H](Cc1ccccc1)C(=O)O; dPip = O=C(O)[C@H]1CCCCN1; NMeA = CN[C@@H](C)C(=O)O; Sar = CNCC(=O)O

The compounds below were run against T1, human PD-1 (Jurkat-PD-1 cells) / PE-labeled human PD-L1-Ig (Homo sapiens, UniProt Q15116) (assay: Jurkat-PD-1 Cell Binding High-Content Screening Assay (CBA); Jurkat hPD1-PDL1 assay). Details: Jurkat cell line over-expressing human PD-1; PE-labeled PD-L1-Ig 20 nM final; compound incubated 2 hours at 37° C.; read-out: Jurkat HPD1-PDL1 IC50.
T1 construct: expressed in transfected cells; host or cells: Jurkat cell line over-expressing human PD-1
T1 sequence (Q15116 25-288): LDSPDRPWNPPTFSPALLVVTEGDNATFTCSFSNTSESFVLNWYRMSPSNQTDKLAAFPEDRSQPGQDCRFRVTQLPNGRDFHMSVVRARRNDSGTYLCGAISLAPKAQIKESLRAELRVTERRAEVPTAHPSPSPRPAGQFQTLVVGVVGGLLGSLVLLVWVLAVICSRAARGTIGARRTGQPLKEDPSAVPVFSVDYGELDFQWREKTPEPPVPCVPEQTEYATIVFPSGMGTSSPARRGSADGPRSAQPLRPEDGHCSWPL
How it was run: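 Read-out is high-content imaging of PE fluorescence on PD-1-over-expressing Jurkat cells. Cells are first exposed to compound for 2 hours at 37° C in serum-containing DMEM, after which PE-labeled PD-L1-Ig is added at 20 nM final.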
Work on `CC(C)C[C@@H]1NC(=O)[C@H](Cc2c[nH]c3ccccc23)NC(=O)[C@H](CC(=O)O)NC(=O)[C@H](Cc2ccc(C(=O)O)cc2)NC(=O)[C@H](Cc2ccccc2)NC(=O)CSC[C@@H](C(=O)N[C@@H](C)C(N)=O)NC(=O)[C@H](CO)NC(=O)[C@H](C(C)C)NC(=O)[C@H](CC(C)C)NC(=O)[C@H](CC(N)=O)NC(=O)CN(C)C(=O)[C@H](C)N(C)C(=O)[C@H](C(C)C)NC(=O)[C@H](Cc2ccc(-c3ccccc3)cc2)NC1=O` [Example 1066] ({CH2CO}-F[Phe(4-COOH)]DWL[Bip]V[NMeA][Sar]NLVSCA-NH2; thioether N-14) yielded an IC50 of 0.16 µM.
In the case of `CC(C)C[C@@H]1NC(=O)[C@H](Cc2c[nH]c3ccccc23)NC(=O)[C@H](CC(=O)O)NC(=O)[C@H](Cc2ccc(O)cc2)NC(=O)[C@H](Cc2ccccc2)NC(=O)CSC[C@@H](C(=O)N[C@@H](C)C(N)=O)NC(=O)[C@H](CO)NC(=O)[C@H](C(C)C)NC(=O)[C@H](CC(C)C)NC(=O)[C@H](CC(N)=O)NC(=O)[C@H]2CCCCN2C(=O)[C@H]2CCCN2C(=O)[C@H](C(C)C)NC(=O)[C@H](Cc2ccc(-c3ccccc3)cc2)NC1=O` [Example 1006] ({CH2CO}-FYDWL[Bip]V[dP][dPip]NLVSCA-NH2; thioether N-14), the IC50 is reported as 0.04 µM.
`CC(C)C[C@@H]1NC(=O)[C@H](CCCNC(=N)N)NC(=O)[C@H](Cc2ccccc2)N(C)C(=O)[C@H](C)N(C)C(=O)[C@H](CCCNC(=N)N)NC(=O)[C@H](Cc2ccc(-c3ccccc3)cc2)NC(=O)[C@H](C(C)C)NC(=O)[C@H](Cc2c[nH]c3ccccc23)NC(=O)[C@H](CC(=O)O)NC(=O)[C@H](Cc2ccccc2)NC(=O)[C@H](Cc2ccccc2)NC(=O)CSC[C@@H](C(=O)NCC(N)=O)NC(=O)[C@H](CO)NC(=O)[C@H](C(C)C)NC1=O` [Example 1238] ({CH2CO}-FFDWV[Bip]R[NMeA][NMeF]RLVSCG-NH2; thioether N-14) showed an IC50 of 0.17 µM.
Compound `CC(C)C[C@@H]1NC(=O)[C@H](CCCNC(=N)N)NC(=O)[C@H](Cc2ccccc2)N(C)C(=O)[C@H](C)N(C)C(=O)[C@H](CCCNC(=N)N)NC(=O)[C@H](Cc2ccc(-c3ccccc3)cc2)NC(=O)[C@H](C(C)C)NC(=O)[C@H](Cc2c[nH]c3ccccc23)NC(=O)[C@H](CC(=O)O)NC(=O)[C@H](Cc2ccc(O)cc2)NC(=O)[C@H](Cc2ccccc2)NC(=O)CSC[C@@H](C(=O)N[C@H](C)C(N)=O)NC(=O)[C@H](CO)NC(=O)[C@H](C(C)C)NC1=O` [Example 1331] ({CH2CO}-FYDWV[Bip]R[NMeA][NMeF]RLVSC[dA]-NH2; thioether N-14) has an IC50 of 0.08 µM.
`CC(C)C[C@@H]1NC(=O)CSC[C@@H](C(=O)NCC(N)=O)NC(=O)[C@H](CO)NC(=O)[C@H](C(C)C)NC(=O)[C@H](CC(C)C)NC(=O)[C@H](CCCNC(=N)N)NC(=O)[C@H](Cc2ccccc2)N(C)C(=O)[C@H](C)N(C)C(=O)[C@H](CCCNC(=N)N)NC(=O)[C@H](Cc2ccc(-c3ccccc3)cc2)NC(=O)[C@H](C(C)C)NC(=O)[C@H](Cc2c[nH]c3ccccc23)NC(=O)[C@H](CC(=O)O)NC(=O)[C@H](Cc2ccc(O)cc2)NC1=O` [Example 1077] ({CH2CO}-LYDWV[Bip]R[NMeA][NMeF]RLVSCG-NH2; thioether N-14) gave an IC50 of 0.21 µM.
`CC(C)C[C@@H]1NC(=O)CSC[C@@H](C(=O)NCC(N)=O)NC(=O)[C@H](CO)NC(=O)[C@H](C(C)C)NC(=O)[C@H](CC(C)C)NC(=O)[C@H](CCCNC(=N)N)NC(=O)[C@H](Cc2ccccc2)N(C)C(=O)[C@H](C)N(C)C(=O)[C@H](CCCNC(=N)N)NC(=O)[C@H](Cc2ccc(-c3ccccc3)cc2)NC(=O)[C@H](C(C)C)NC(=O)[C@H](Cc2c[nH]c3ccccc23)NC(=O)[C@H](CC(=O)O)NC(=O)[C@H](Cc2ccc(C(=O)O)cc2)NC1=O` [Example 1295] ({CH2CO}-L[Phe(4-COOH)]DWV[Bip]R[NMeA][NMeF]RLVSCG-NH2; thioether N-14) showed an IC50 of 0.21 µM.
